Laboratory results as given in patent publication US4788216A, “Medicinal uses for podophyllotoxins” (Conpharm AB, priority 1984, dated 1988).
Values after ≈ are worked out from the molar mass of the structure shown. Values joined by “and” are separate entries in the source; they are usually repeats but may differ in a detail not shown here. Equal values may be shown once.

Columns and labels:
[1] = test system: Plasmodium falciparum; assay: Clinical effect against malaria (number of asexual parasites in blood of patients); type: in vivo; settings: individual patient
Experimental: The effect against malaria was determined clinically on a number of patients which had been attacked by the malaria parasite Plasmodium falciparum. Podophyllotoxin was administered in two different doses and the number of parasites in the patients was determined for each day and was noted as the number of asexual parasites per cubic millimeter of blood.

[2] = test system: cytotoxic cells; assay: In vitro development of cytotoxic cells; type: cell-based
[3] = Acute toxicity in rabbit; settings: in vivo, topical or ocular, dermal
Source text: (§1) The acute toxicity of podophyllotoxin has been determined on various test animals and by various ways of administration.

[4] = Acute toxicity in rat; settings: in vivo
Source text: as §1

[5] = Acute toxicity in mouse; settings: in vivo
Source text: as §1

[6] = test system: proliferation of cells; assay: In vitro proliferation of cells caused by mitogenic lectins or cells from a non-related individual; type: cell-based
[7] = test system: formation of specific antibodies; assay: Antibody formation in mice injected with sheep erythrocytes; type: in vivo; settings: daily injections after administration of erythrocytes, spleen
Source text: Injection with a suspension of erythrocytes from sheep to mice causes formation of specific antibodies against this antigen. This reaction which normally is very strong requires a cooperation between different cell types, substantially macrophages, T and B lymphocytes, and can easily be detected in the spleen of the test animals.

[8] = Solubility in water; type: physicochemical; settings: in its pure state
Source text: The compound podophyllotoxin has the following physical data in its pure state: […]

[9] = test system: psoriasis vulgaris lesions; assay: Clinical investigation in psoriasis vulgaris patients, topical cream; type: in vivo, human (patients)
Experimental: A clinical investigation was carried out with totally 152 patients of an age between 19 and 71 years (mean value 46.1 years) afflicted with psoriasis vulgaris. The patients were divided into three groups of 50, 51 and 51 persons who were treated topically with a cream containing 0.1, 0.25 and 0.5% of podophyllotoxin, respectively. Each patient was treated only on a specific attacked area of the body while other attacked areas served as comparison. The severity of the attack was judged at the start of the treatment, and 2, 4, 8, 12 and 16 weeks after this, no treatment being carried out during the last period of 4 weeks. The investigation was carried out with double blind technique and the results were treated statistically.

COc1cc([C@@H]2c3cc4c(cc3[C@H](O)[C@H]3COC(=O)[C@H]23)OCO4)cc(OC)c1OC [podophyllotoxin]
Remarks (outcome) ([1]; 1.5 mg per day (t.i.d.)): Marked reduction of parasites | number of asexual parasites, day 0 ([1]; 1.5 mg per day (t.i.d.)): 660 asexual parasites per cubic mi and 13710 asexual parasites per cubic mi and 1410 asexual parasites per cubic mi and 960 asexual parasites per cubic mi and 13080 asexual parasites per cubic mi and 4380 asexual parasites per cubic mi | number of asexual parasites, day 1 ([1]; 1.5 mg per day (t.i.d.)): 180 asexual parasites per cubic mi and 3000 asexual parasites per cubic mi and 360 asexual parasites per cubic mi and 90 asexual parasites per cubic mi and 510 asexual parasites per cubic mi and 1560 asexual parasites per cubic mi | number of asexual parasites, day 2 ([1]; 1.5 mg per day (t.i.d.)): 0 asexual parasites per cubic mi and 120 asexual parasites per cubic mi and 180 asexual parasites per cubic mi | number of asexual parasites, day 3 ([1]; 1.5 mg per day (t.i.d.)): 0 asexual parasites per cubic mi and 660 asexual parasites per cubic mi | number of asexual parasites, day 4 ([1]; 1.5 mg per day (t.i.d.)): 180 asexual parasites per cubic mi and 0 asexual parasites per cubic mi and 60 asexual parasites per cubic mi and 1400 asexual parasites per cubic mi | number of asexual parasites, day 5 ([1]; 1.5 mg per day (t.i.d.)): 270 asexual parasites per cubic mi and 0 asexual parasites per cubic mi and 60 asexual parasites per cubic mi | number of asexual parasites, day 6 ([1]; 1.5 mg per day (t.i.d.)): 270 asexual parasites per cubic mi and 0 asexual parasites per cubic mi and 60 asexual parasites per cubic mi | number of asexual parasites, day 7 ([1]; 1.5 mg per day (t.i.d.)): 270 asexual parasites per cubic mi and 0 asexual parasites per cubic mi and 60 asexual parasites per cubic mi | Remarks (outcome) ([1]; 3.0 mg per day (t.i.d.)): Cured | number of asexual parasites, day 0 ([1]; 3.0 mg per day (t.i.d.)): 2880 asexual parasites per cubic mi and 2060 asexual parasites per cubic mi and 6080 asexual parasites per cubic mi and 320 asexual parasites per cubic mi | number of asexual parasites, day 1 ([1]; 3.0 mg per day (t.i.d.)): 2520 asexual parasites per cubic mi and 1600 asexual parasites per cubic mi and 2000 asexual parasites per cubic mi and 60 asexual parasites per cubic mi | number of asexual parasites, day 2 ([1]; 3.0 mg per day (t.i.d.)): 60 asexual parasites per cubic mi and 0 asexual parasites per cubic mi | number of asexual parasites, day 3 ([1]; 3.0 mg per day (t.i.d.)): 540 asexual parasites per cubic mi and 0 asexual parasites per cubic mi | number of asexual parasites, day 4 ([1]; 3.0 mg per day (t.i.d.)): 600 asexual parasites per cubic mi and 0 asexual parasites per cubic mi | number of asexual parasites, day 5 ([1]; 3.0 mg per day (t.i.d.)): 600 asexual parasites per cubic mi and 0 asexual parasites per cubic mi | number of asexual parasites, day 6 ([1]; 3.0 mg per day (t.i.d.)): 0 asexual parasites per cubic mi | number of asexual parasites, day 7 ([1]; 3.0 mg per day (t.i.d.)): 0 asexual parasites per cubic mi | inhibition of development of cytotoxic cells [2]: inhibits the development of cytotoxic cells | effects at markedly lower doses (development of cytotoxic cells) ([2]; markedly lower doses): at markedly lower doses these effects increase | LD50 [3]: 200 mg/kg | LD50 ([4]; iv): 10 mg/kg | LD50 ([4]; topical or ocular, dermal): 500 mg/kg | LD50 ([5]; iv): 20 mg/kg | LD50 ([5]; po): 100 mg/kg | time to recover complete reactivity to the stimuli ([6]; cells treated with podophyllotoxin): ≤ 24 h | effects at markedly lower doses (proliferation) ([6]; in vitro, markedly lower doses): at markedly lower doses these effects increase | inhibition of proliferation of cells ([6]; in vitro, mitogenic lectins or cells from a non-related individual): inhibits the proliferation of cells | inhibition of antibody formation against sheep erythrocytes [7]: inhibited in a dose-dependent way | solubility [8]: 120 µg/mL (≈ 290 µM) | reversibility of secondary effects ([9]; after interruption of the treatment): disappeared after interruption of the treatment | difference between treated and untreated lesions ([9]; after two weeks and in the course of the treatment): statistically significant difference | patients free from symptoms or with only mild ones ([9]; at the fifth control, untreated lesions: only two patients): 70-75% | improvement of severity of treated lesions with associated symptoms ([9]; cream 0.1, 0.25 and 0.5%, all three dosage levels): statistically significant improvements | patients reporting secondary effects such as rash ([9]; of 152 patients, three cream strengths together): 11 patients | deterioration of severity or symptoms of treated lesions in follow-up ([9]; weeks 13 to 16, no treatment): no deterioration occurred
